pIC50: −log10 of the molar value.
What follows are compounds tested against T1, USP28 (His-tagged USP28-FL-mammalian) (Homo sapiens, UniProt Q96RU2) (assay: Ubiquitin-Rhodamine 110 Assay for USP28 Activity, Example A-1(a)). Conditions: Ubiquitin-Rhodamine 110 assay, Example A-1(a); read-out: USP28 A-1(a) IC50 range.
T1 construct: Expression of USP28 (1-1077)-TEV-6*His (pTT5 vector); made in house; host or cells: Expi293f cells (pTT5 vector)
T1 sequence (Q96RU2 1-1077): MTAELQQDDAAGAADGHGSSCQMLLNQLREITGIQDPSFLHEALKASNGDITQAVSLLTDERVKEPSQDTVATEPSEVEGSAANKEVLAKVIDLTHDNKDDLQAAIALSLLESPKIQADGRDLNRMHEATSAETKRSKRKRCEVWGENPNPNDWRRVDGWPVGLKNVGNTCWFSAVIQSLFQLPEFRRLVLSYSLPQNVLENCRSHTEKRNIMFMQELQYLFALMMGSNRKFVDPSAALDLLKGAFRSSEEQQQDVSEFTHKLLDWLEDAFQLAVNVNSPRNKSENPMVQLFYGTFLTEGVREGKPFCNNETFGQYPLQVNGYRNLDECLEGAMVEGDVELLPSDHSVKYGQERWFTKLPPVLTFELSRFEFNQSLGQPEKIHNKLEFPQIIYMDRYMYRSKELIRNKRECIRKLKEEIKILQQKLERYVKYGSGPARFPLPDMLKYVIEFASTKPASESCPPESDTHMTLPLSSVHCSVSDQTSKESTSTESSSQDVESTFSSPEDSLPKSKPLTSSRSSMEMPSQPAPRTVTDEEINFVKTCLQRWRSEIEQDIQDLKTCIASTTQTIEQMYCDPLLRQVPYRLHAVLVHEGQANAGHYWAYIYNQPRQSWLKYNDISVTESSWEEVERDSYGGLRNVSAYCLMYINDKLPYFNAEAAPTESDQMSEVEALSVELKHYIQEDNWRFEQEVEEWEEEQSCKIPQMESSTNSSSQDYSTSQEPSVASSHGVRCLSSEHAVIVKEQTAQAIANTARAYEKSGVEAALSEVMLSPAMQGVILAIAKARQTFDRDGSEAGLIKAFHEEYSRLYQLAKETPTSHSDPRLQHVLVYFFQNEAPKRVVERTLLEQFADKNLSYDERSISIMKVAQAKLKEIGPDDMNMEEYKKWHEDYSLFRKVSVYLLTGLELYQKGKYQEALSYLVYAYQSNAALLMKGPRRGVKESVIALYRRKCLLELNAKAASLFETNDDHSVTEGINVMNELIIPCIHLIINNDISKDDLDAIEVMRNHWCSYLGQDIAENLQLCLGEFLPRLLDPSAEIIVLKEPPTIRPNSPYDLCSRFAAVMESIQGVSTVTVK
Format: biochemical
Method in brief: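 Full-length His-tagged USP28 (1-1077, Expi293F-expressed; […]) was preincubated 30 min with compound (25 μM–1.3 nM, 10-point 3-fold) in 20 mM Tris-HCl pH 8.0, 3 mM BME, 0.03% BGG, 0.01% Triton X-100. Ub-Rh110 (25 nM) was then added for 45 min at room temperature, stopped with citric acid, and read by fluorescence (485/535 nm).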

Compound | pIC50
Cc1ccc2c(N)c(C(=O)N[C@H]3COc4cc(C5(F)CCNCC5)ccc4C3)sc2n1 [Example 8-1, (R)-3-Amino-N-(7-(4-fluoropiperidin-4-yl)chroman-3-yl)-6-methylthieno[2,3-b]pyridine-2-carboxamide] | 7.30 to 9.00
Cc1ccc2c(N)c(C(=O)N[C@H]3COc4cc(N5CCNCC5)cc(F)c4C3)sc2n1 [Example 10-1, (R)-3-amino-N-(5-fluoro-7-(piperazin-1-yl)chroman-3-yl)-6-methylthieno[2,3-b]pyridine-2-carboxamide] | 7.30 to 9.00
CO[C@@H]1CN(c2cc(F)c3c(c2)OC[C@H](NC(=O)c2sc4nc(C)ccc4c2N)C3)C[C@H]1N [Example 10-2, 3-amino-N-((R)-7-((3R,4R)-3-amino-4-methoxypyrrolidin-1-yl)-5-fluorochroman-3-yl)-6-methylthieno[2,3-b]pyridine-2-carboxamide] | 7.30 to 9.00
[2H]C1([2H])NC([2H])([2H])C([2H])([2H])N(c2cc(F)c3c(c2)OC[C@H](NC(=O)c2sc4nc(C)ccc4c2N)C3)C1([2H])[2H] [Example 10-4, (R)-3-amino-N-(5-fluoro-7-(piperazin-l-yl-2,2,3,3,5,5,6,6-d8)chroman-3-yl)-6-methylthieno[2,3-b]pyridine-2-carboxamide] | 7.30 to 9.00
Cc1ccc2c(N)c(C(=O)N[C@@H]3COc4cc(N5CCNCC5)cc(F)c4C3)sc2n1 [Example 10-5, (S)-3-amino-N-(5-fluoro-7-(piperazin-1-yl)chroman-3-yl)-6-methylthieno[2,3-b]pyridine-2-carboxamide] | 5.70 to 6.70
Cc1ccc2c(N)c(C(=O)N[C@H]3COc4cc(N5CC6CNCC(C5)O6)cc(F)c4C3)sc2n1 [Example 10-6, N-((3R)-7-(9-oxa-3,7-diazabicyclo[3.3.1]nonan-3-yl)-5-fluorochroman-3-yl)-3-amino-6-methylthieno[2,3-b]pyridine-2-carboxamide] | 7.30 to 9.00
Cc1cc(C)c2c(N)c(C(=O)N[C@H]3COc4cc(N5CC6CC(C5)N6)cc(F)c4C3)sc2n1 [Example 10-7, N-((3R)-7-(3,6-diazabicyclo[3.1.1]heptan-3-yl)-5-fluorochroman-3-yl)-3-amino-4,6-dimethylthieno[2,3-b]pyridine-2-carboxamide] | 7.30 to 9.00
Cc1cnc2c(N)c(C(=O)N[C@H]3COc4cc(N5CC6CC(C5)N6)cc(F)c4C3)sc2n1 [Example 10-8, N-((3R)-7-(3,6-diazabicyclo[3.1.1]heptan-3-yl)-5-fluorochroman-3-yl)-7-amino-3-methylthieno[2,3-b]pyrazine-6-carboxamide] | 7.30 to 9.00
Cc1cc(C)c2c(N)c(C(=O)N[C@H]3COc4cc(N5CCNCC5)cc(F)c4C3)sc2n1 [Example 10-9, (R)-3-amino-N-(5-fluoro-7-(piperazin-1-yl)chroman-3-yl)-4,6-dimethylthieno[2,3-b]pyridine-2-carboxamide] | 7.30 to 9.00
Cc1cnc2c(N)c(C(=O)N[C@H]3COc4cc(N5CCNCC5)cc(F)c4C3)sc2n1 [Example 10-10, (R)-7-amino-N-(5-fluoro-7-(piperazin-1-yl)chroman-3-yl)-3-methylthieno[2,3-b]pyrazine-6-carboxamide] | 7.30 to 9.00
COc1ccc2c(N)c(C(=O)N[C@H]3COc4cc(N5CCNCC5)cc(F)c4C3)sc2n1 [Example 10-11, (R)-3-amino-N-(5-fluoro-7-(piperazin-1-yl)chroman-3-yl)-6-methoxythieno[2,3-b]pyridine-2-carboxamide] | 7.30 to 9.00
Cc1cnc2c(N)c(C(=O)N[C@H]3COc4cc(N5CC6CNCC(C5)O6)cc(F)c4C3)sc2n1 [Example 10-12, N-((3R)-7-(9-oxa-3,7-diazabicyclo[3.3.1]nonan-3-yl)-5-fluorochroman-3-yl)-7-amino-3-methylthieno[2,3-b]pyrazine-6-carboxamide] | 7.30 to 9.00
Cc1cc(C)c2c(N)c(C(=O)N[C@H]3COc4cc(N5CC6CNCC(C5)O6)cc(F)c4C3)sc2n1 [Example 10-13, N-((3R)-7-(9-oxa-3,7-diazabicyclo[3.3.1]nonan-3-yl)-5-fluorochroman-3-yl)-3-amino-4,6-dimethylthieno[2,3-b]pyridine-2-carboxamide] | 7.30 to 9.00
Cc1cc(C(F)(F)F)c2c(N)c(C(=O)N[C@H]3COc4cc(N5CCNCC5)cc(F)c4C3)sc2n1 [Example 10-14, (R)-3-amino-N-(5-fluoro-7-(piperazin-1-yl)chroman-3-yl)-6-methyl-4-(trifluoromethyl)thieno[2,3-b]pyridine-2-carboxamide] | 7.30 to 9.00
Cc1ccc2c(N)c(C(=O)N(C)[C@H]3COc4cc(N5CCNCC5)cc(F)c4C3)sc2n1 [Example 10-15, 3-amino-N-[(3R)-5-fluoro-7-(piperazin-1-yl)-3,4-dihydro-2H-1-benzopyran-3-yl)-N,6-dimethylthieno[2,3-b]pyridine-2-carboxamide] | < 5.70
Cc1ccc2c(N)c(C(=O)N[C@H]3CCc4cc(N5CC6CCC(C5)N6)ccc4C3)sc2n1 [Example 11-1, N-((2S)-6-(3,8-diazabicyclo[3.2.1]octan-3-yl)-1,2,3,4-tetrahydronaphthalen-2-yl)-3-amino-6-methylthieno[2,3-b]pyridine-2-carboxamide] | 7.30 to 9.00
Cc1ccc2c(N)c(C(=O)N[C@@H]3CCc4cc(N5CC6CCC(C5)N6)ccc4C3)sc2n1 [Example 11-2, N-((2R)-6-(3,8-diazabicyclo[3.2.1]octan-3-yl)-1,2,3,4-tetrahydronaphthalen-2-yl)-3-amino-6-methylthieno[2,3-b]pyridine-2-carboxamide] | 6.70 to 7.30

Same assay, conditions: Ubiquitin-Rhodamine 110 assay, format Example A-1(a); read-out: USP28 A-1(a) IC50 range

Compound | pIC50
Cc1ccc2c(N)c(C(=O)N[C@@H]3CCc4cc(N5CCNCC5)c(F)cc4C3)sc2n1 (single isomer, unassigned) [Example 21-7] | 6.70 to 7.30
Cc1ccc2c(N)c(C(=O)N[C@H]3CCc4cc(N5CCNCC5)c(F)cc4C3)sc2n1 (single isomer, unassigned) [Example 21-8] | 5.70 to 6.70
Cc1ccc2c(N)c(C(=O)N[C@H]3CCc4c(F)c(N5CCNCC5)cc(F)c4C3)sc2n1 (single isomer, unassigned) [Example 22-1] | 5.70 to 6.70
Cc1ccc2c(N)c(C(=O)N[C@@H]3CCc4c(F)c(N5CCNCC5)cc(F)c4C3)sc2n1 (single isomer, unassigned) [Example 22-2] | 7.30 to 9.00
Cc1ccc2c(N)c(C(=O)N[C@H]3CCc4c(F)c(N5CC6CNCC(C5)O6)cc(F)c4C3)sc2n1 (single isomer, unassigned) [Example 22-3] | 5.70 to 6.70
Cc1ccc2c(N)c(C(=O)N[C@@H]3CCc4c(F)c(N5CC6CNCC(C5)O6)cc(F)c4C3)sc2n1 (single isomer, unassigned) [Example 22-4] | 7.30 to 9.00
Cc1ccc2c(N)c(C(=O)N[C@@H]3CCc4c(F)c(N5CC6CCC(C5)N6)cc(F)c4C3)sc2n1 (single isomer, unassigned) [Example 22-6] | 5.70 to 6.70
CO[C@H]1CN(c2ccc3c(n2)CC[C@H](NC(=O)c2sc4nc(C)cnc4c2N)C3)C[C@@H]1N (single isomer, unassigned) [Example 23-1] | 5.70 to 6.70
CO[C@H]1CN(c2ccc3c(n2)CC[C@@H](NC(=O)c2sc4nc(C)cnc4c2N)C3)C[C@@H]1N (single isomer, unassigned) [Example 23-2] | < 5.70
Cc1ccc2c(N)c(C(=O)N[C@H]3COc4cc(N5CC6CCC(C5)N6)c(F)c(F)c4C3)sc2n1 [Example 13-3, N-((3R)-7-(3,8-diazabicyclo[3.2.1]octan-3-yl)-5,6-difluorochroman-3-yl)-3-amino-6-methylthieno[2,3-b]pyridine-2-carboxamide] | 5.70 to 6.70
Cc1ccc2c(N)c(C(=O)N[C@@H]3COc4cc(N5CC6CCC(C5)N6)c(F)c(F)c4C3)sc2n1 [Example 13-4, N-((3S)-7-(3,8-diazabicyclo[3.2.1]octan-3-yl)-5,6-difluorochroman-3-yl)-3-amino-6-methylthieno[2,3-b]pyridine-2-carboxamide] | 7.30 to 9.00
Cc1ccc2c(N)c(C(=O)N[C@H]3COc4cc(N5CCNCC5)c(Cl)cc4C3)sc2n1 [Example 13-5, (R)-3-amino-N-(6-chloro-7-(piperazin-1-yl)chroman-3-yl)-6-methylthieno[2,3-b]pyridine-2-carboxamide] | < 5.70

Reference: patent US11524966B1 (Valo Early Discovery, Inc., priority 2017, dated 2022)
